Laboratory results reported in ChEMBL document CHEMBL1201862, “PubChem BioAssay data set” (2004).
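How tested: cells in 96-well plates exposed to compound for 48 hours at five concentrations. Abbreviation: GI50, concentration required for 50% inhibition of growth.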 The source made the active and inactive calls. Cut-off read from the data, not from the text of the source: active = GI50 up to about 1.1 µM and inactive = higher.

Key:
Assay in all cases: inhibition of tumour cell growth, NCI panel, 48 h
[1] = system: A498
[2] = system: EKVX
[3] = system: MOLT-4
[4] = system: Malme-3M
[5] = system: NCI-H23
[6] = system: OVCAR-3
[7] = system: OVCAR-5
[8] = system: OVCAR-8
[9] = system: RPMI-8226
[10] = system: SF-268
[11] = system: SK-MEL-28
[12] = system: SK-MEL-5
[13] = system: SNB-19
[14] = system: SNB-75
[15] = system: SR
[16] = system: U-251
[17] = system: UO-31
[18] = system: HCT-116
[19] = system: M19-MEL
[20] = system: XF498

For `C=CCn1c(=O)ccn(COCCO)c1=O`, the GI50 [1] was > 100 µM (inactive), the GI50 [2] was > 100 µM (inactive) and the GI50 [3] was > 100 µM (inactive). The GI50 [4] was > 100 µM (inactive), the GI50 [5] was > 100 µM (inactive) and the GI50 [6] was > 100 µM (inactive). The GI50 [7] was > 100 µM (inactive), the GI50 [8] was > 100 µM (inactive) and the GI50 [9] was > 100 µM (inactive). For the same compound, the GI50 [10] was > 100 µM (inactive), the GI50 [11] was > 100 µM (inactive) and the GI50 [12] was > 100 µM (inactive). The GI50 [13] was 25.8 µM (inactive), the GI50 [14] was > 100 µM (inactive) and the GI50 [15] was > 100 µM (inactive). The GI50 [16] was > 100 µM (inactive) and the GI50 [17] was > 100 µM (inactive).

`CCOC(=O)c1cc2c([N+](=O)[O-])c(NC(C)=O)ccc2s1` was tested, and the GI50 [1] was 29.9 µM (inactive), the GI50 [2] was 12.6 µM (inactive) and the GI50 [18] was 87.9 µM (inactive). For the same compound, the GI50 [3] was 31.4 µM (inactive), the GI50 [4] was 28.2 µM (inactive) and the GI50 [5] was 71.9 µM (inactive). The GI50 [6] was 38.4 µM (inactive), the GI50 [7] was > 100 µM (inactive) and the GI50 [8] was > 100 µM (inactive). The GI50 [9] was 24.4 µM (inactive), the GI50 [10] was 50.7 µM (inactive) and the GI50 [11] was > 100 µM (inactive). The GI50 [12] was 39.4 µM (inactive), the GI50 [13] was > 100 µM (inactive) and the GI50 [14] was 19.3 µM (inactive). The GI50 [16] was 44.6 µM (inactive) and the GI50 [17] was 47.3 µM (inactive).

With `CSCCC(N)P(C)(=O)O` (stereo unspecified) the GI50 [1] was > 100 µM (inactive), the GI50 [2] was > 100 µM (inactive) and the GI50 [18] was > 100 µM (inactive). The GI50 [3] was > 100 µM (inactive), the GI50 [4] was > 100 µM (inactive) and the GI50 [5] was > 100 µM (inactive). The GI50 [6] was > 100 µM (inactive), the GI50 [7] was > 100 µM (inactive) and the GI50 [8] was > 100 µM (inactive). For the same compound, the GI50 [9] was > 100 µM (inactive), the GI50 [10] was > 100 µM (inactive) and the GI50 [11] was > 100 µM (inactive). For the same compound, the GI50 [12] was > 100 µM (inactive), the GI50 [13] was > 100 µM (inactive) and the GI50 [14] was > 100 µM (inactive). For the same compound, the GI50 [15] was > 100 µM (inactive), the GI50 [16] was > 100 µM (inactive) and the GI50 [17] was > 100 µM (inactive).

In the case of `O=C1/C(=C/c2ccccc2)NC(=S)N1CN1CCOCC1`, the GI50 [1] is reported as 82.2 µM (inactive), the GI50 [2] is reported as > 100 µM (inactive) and the GI50 [18] is reported as > 100 µM (inactive). The GI50 [3] was > 100 µM (inactive), the GI50 [4] was > 100 µM (inactive) and the GI50 [5] was > 100 µM (inactive). For the same compound, the GI50 [6] was > 100 µM (inactive), the GI50 [7] was > 100 µM (inactive) and the GI50 [8] was > 100 µM (inactive). The GI50 [9] was > 100 µM (inactive), the GI50 [10] was > 100 µM (inactive) and the GI50 [11] was > 100 µM (inactive). For the same compound, the GI50 [12] was > 100 µM (inactive), the GI50 [13] was > 100 µM (inactive) and the GI50 [14] was > 100 µM (inactive). For the same compound, the GI50 [15] was > 100 µM (inactive), the GI50 [16] was > 100 µM (inactive) and the GI50 [17] was > 100 µM (inactive).

`O=[N+]([O-])C(/C=C(\Cl)[N+](=O)[O-])=C1Nc2ccccc2N1` was tested, and the GI50 [1] was 24.8 µM (inactive), the GI50 [2] was 48.5 µM (inactive) and the GI50 [18] was 50.1 µM (inactive). The GI50 [3] was 37.1 µM (inactive), the GI50 [4] was 42.2 µM (inactive) and the GI50 [5] was > 100 µM (inactive). For the same compound, the GI50 [6] was 90.2 µM (inactive), the GI50 [8] was 56.6 µM (inactive) and the GI50 [9] was 44.3 µM (inactive). The GI50 [10] was 57.1 µM (inactive), the GI50 [11] was 42.3 µM (inactive) and the GI50 [12] was 70.8 µM (inactive). For the same compound, the GI50 [13] was 75.5 µM (inactive), the GI50 [14] was 17.3 µM (inactive) and the GI50 [15] was 29.6 µM (inactive). The GI50 [16] was 43.3 µM (inactive) and the GI50 [17] was 42.6 µM (inactive).

For `COc1ccc(C2=NN(c3nsc4ccccc34)C(=O)CC2)cc1`, the GI50 [2] was 55.2 µM (inactive), the GI50 [18] was 54.2 µM (inactive) and the GI50 [19] was > 100 µM (inactive). The GI50 [3] was 44 µM (inactive), the GI50 [5] was > 100 µM (inactive) and the GI50 [6] was 32.3 µM (inactive). For the same compound, the GI50 [7] was > 100 µM (inactive), the GI50 [8] was > 100 µM (inactive) and the GI50 [9] was 30.5 µM (inactive). The GI50 [10] was > 100 µM (inactive), the GI50 [11] was > 100 µM (inactive) and the GI50 [12] was 61.4 µM (inactive). For the same compound, the GI50 [13] was 76 µM (inactive), the GI50 [14] was 84.3 µM (inactive) and the GI50 [15] was 49 µM (inactive). The GI50 [16] was 91.4 µM (inactive) and the GI50 [17] was 59.2 µM (inactive).

`COc1cccc(CC(C)N)c1` (stereo unspecified) was tested, and the GI50 [1] was > 100 µM (inactive), the GI50 [2] was > 100 µM (inactive) and the GI50 [18] was > 100 µM (inactive). For the same compound, the GI50 [3] was > 100 µM (inactive), the GI50 [4] was > 100 µM (inactive) and the GI50 [5] was > 100 µM (inactive). For the same compound, the GI50 [6] was > 100 µM (inactive), the GI50 [7] was > 100 µM (inactive) and the GI50 [8] was > 100 µM (inactive). The GI50 [9] was > 100 µM (inactive), the GI50 [10] was > 100 µM (inactive) and the GI50 [11] was > 100 µM (inactive). The GI50 [12] was > 100 µM (inactive), the GI50 [13] was > 100 µM (inactive) and the GI50 [14] was > 100 µM (inactive). The GI50 [15] was > 100 µM (inactive), the GI50 [16] was > 100 µM (inactive) and the GI50 [17] was > 100 µM (inactive).

For `Cc1nc2cccc(F)c2c(=O)n1C1CCCCNC1=O` (stereo unspecified), the GI50 [2] was > 10 µM (inactive), the GI50 [18] was > 10 µM (inactive) and the GI50 [3] was > 10 µM (inactive). For the same compound, the GI50 [5] was > 10 µM (inactive), the GI50 [6] was > 10 µM (inactive) and the GI50 [7] was > 10 µM (inactive). The GI50 [8] was > 10 µM (inactive), the GI50 [9] was > 10 µM (inactive) and the GI50 [10] was > 10 µM (inactive). For the same compound, the GI50 [11] was > 10 µM (inactive), the GI50 [12] was > 10 µM (inactive) and the GI50 [13] was > 10 µM (inactive). For the same compound, the GI50 [14] was > 10 µM (inactive), the GI50 [15] was > 10 µM (inactive) and the GI50 [16] was > 10 µM (inactive). For the same compound, the GI50 [17] was > 10 µM (inactive).

`CCOP(=Nc1ccc(N(C)C)cc1)(OCC)OCC` was tested, and the GI50 [1] was > 100 µM (inactive), the GI50 [2] was > 100 µM (inactive) and the GI50 [18] was > 100 µM (inactive). The GI50 [3] was > 100 µM (inactive), the GI50 [4] was > 100 µM (inactive) and the GI50 [5] was > 100 µM (inactive). For the same compound, the GI50 [6] was > 100 µM (inactive), the GI50 [7] was > 100 µM (inactive) and the GI50 [8] was > 100 µM (inactive). The GI50 [9] was > 100 µM (inactive), the GI50 [10] was > 100 µM (inactive) and the GI50 [11] was > 100 µM (inactive). For the same compound, the GI50 [12] was > 100 µM (inactive), the GI50 [13] was > 100 µM (inactive) and the GI50 [14] was > 100 µM (inactive). The GI50 [16] was > 100 µM (inactive) and the GI50 [17] was > 100 µM (inactive).

`C=C1CC(OC)(C(O)C(=O)N[C@H]2OCO[C@H]3C2O[C@H](C[C@@H](COC)OC)C(C)(C)C3OC)O[C@H](C)[C@@H]1C` (stereo partly specified) was tested, and the GI50 [1] was < 0.00482 µM (active), the GI50 [2] was < 0.00482 µM (active) and the GI50 [18] was < 0.00482 µM (active). For the same compound, the GI50 [19] was < 0.00482 µM (active), the GI50 [3] was < 0.00482 µM (active) and the GI50 [5] was < 0.00482 µM (active). The GI50 [6] was < 0.00482 µM (active), the GI50 [7] was < 0.00482 µM (active) and the GI50 [8] was < 0.00482 µM (active). The GI50 [9] was < 0.00482 µM (active), the GI50 [10] was < 0.00482 µM (active) and the GI50 [11] was < 0.00482 µM (active). For the same compound, the GI50 [12] was < 0.00482 µM (active), the GI50 [13] was < 0.00482 µM (active) and the GI50 [14] was < 0.00482 µM (active). The GI50 [16] was < 0.00482 µM (active), the GI50 [17] was < 0.00482 µM (active) and the GI50 [20] was < 0.00482 µM (active).

For `Cc1cccc(/C=C2\CCCc3ccccc3C2=O)c1`, the GI50 [2] was 20.6 µM (inactive), the GI50 [18] was 15 µM (inactive) and the GI50 [3] was 16.9 µM (inactive). The GI50 [4] was 18.1 µM (inactive), the GI50 [5] was 25.4 µM (inactive) and the GI50 [6] was 26.3 µM (inactive). For the same compound, the GI50 [7] was 15 µM (inactive), the GI50 [8] was 19.1 µM (inactive) and the GI50 [9] was 8.2 µM (inactive). For the same compound, the GI50 [10] was 15.2 µM (inactive), the GI50 [11] was 23.8 µM (inactive) and the GI50 [13] was 24.4 µM (inactive). For the same compound, the GI50 [14] was 42.2 µM (inactive), the GI50 [15] was 15 µM (inactive) and the GI50 [16] was 18.6 µM (inactive). For the same compound, the GI50 [17] was 26.8 µM (inactive).

With `NC(=O)c1csc(C2O[C@@H](COP(=O)(O)OP(=O)(O)OC[C@H]3OC(n4cnc5c(N)ncnc54)[C@H](O)[C@@H]3O)[C@H](O)[C@@H]2O)n1` (stereo partly specified) the GI50 [1] was > 100 µM (inactive), the GI50 [2] was > 100 µM (inactive) and the GI50 [3] was 59.2 µM (inactive). For the same compound, the GI50 [4] was > 100 µM (inactive), the GI50 [5] was > 100 µM (inactive) and the GI50 [6] was > 100 µM (inactive). For the same compound, the GI50 [7] was > 100 µM (inactive), the GI50 [8] was 73.8 µM (inactive) and the GI50 [9] was 65.2 µM (inactive). For the same compound, the GI50 [10] was 64 µM (inactive), the GI50 [11] was 30 µM (inactive) and the GI50 [12] was > 100 µM (inactive). For the same compound, the GI50 [13] was > 100 µM (inactive), the GI50 [14] was 45 µM (inactive) and the GI50 [16] was 45.8 µM (inactive). The GI50 [17] was > 100 µM (inactive) and the GI50 [20] was 33.2 µM (inactive).
